The values that follow come from patent US20260224588A1, “BENZODIAZEPINONE-DERIVED INHIBITORS OF EGFR AND HER2” (The Research Foundation for the State University of New York, priority 2023, published 2026).

One test addresses T1, EGFR L858R kinase domain (Homo sapiens, UniProt P00533, L858R).
T1 construct: The EGFR kinase domain (residues 696-1022) was cloned into pTriEx; 6xHis (N, cleaved yes); GST (N, cleaved yes); made in house; host or cells: SF9 insect cells (baculovirus)
The experiment in a line: HTRF-based activity assay. Type of test: biochemical. As to the method: (§1) Protein expression and purification. The EGFR kinase domain (residues 696-1022) was cloned into pTriEx with an N-terminal 6×His-glutathione S-transferase (GST) fusion tag followed by a TEV protease cleavage site. EGFR WT, L858R, L858R/T790M, L858R/T790M/C797S was expressed after baculoviral infection in SF9 cells and EGFR(T790M/V948R) was expressed in SF21 cells. Briefly, cells were pelleted and resuspended in lysis buffer composed of 50 mM Tris pH 8.0, 500 mM NaCl, 1 mM tris(2-carboxyethyl)phosphine (TCEP), and 5% glycerol. Cells were lysed via sonication prior to ultracentrifugation at >200,000 g for 1 h. Imidazole pH 8.0 was added to the supernatant for a final concentration of 40 mM and flowed through a column containing Ni-NTA agarose beads. The resin was washed with lysis buffer supplemented with 40 mM imidazole and eluted with lysis buffer containing 200 mM imidazole. Eluted EGFR kinase domain was dialyzed overnight in the presence of 5% (w/w) TEV protease against dialysis buffer containing 50 mM Tris pH 8.0, 500 mM NaCl, 1 mM TCEP, and 5% glycerol. The cleaved protein was passed through Ni-NTA resin to remove the 6×His-GST fusion protein and TEV prior to size exclusion chromatography on a prep-grade Superdex S200 column in 50 mM Tris pH 8.0, 500 mM NaCl, 1 mM TCEP, and 5% glycerol.
(§2) HTRF Assays. Biochemical assays for EGFR domains were carried out using a homogeneous time-resolved fluorescence (HTRF) KinEASE-TK (Cisbio) assay, as described previously. Assays were optimized for ATP concentration of 100 μM with enzyme concentrations WT EGFR 10 nM, L858R 0.1 nM, L858R/T790M at 0.02 nM and L858R/T790M/C797S at 0.02 nM. Inhibitor compounds in DMSO were dispensed directly in 384-well plates with the D300 digital dispenser (Hewlett Packard) followed immediately by the addition of aqueous buffered solutions using the Multidrop Combi Reagent Dispenser (Thermo Fischer). […] The curves were fitted using a non-linear regression model with a sigmoidal dose response.
In general terms: In TR-FRET formats the signal depends on donor and acceptor labels being close together.

Test [1] deals with T2, EGFR L858R/T790M/C797S kinase domain (Homo sapiens, UniProt P00533, C797S/L858R/T790M).
T2 construct: The EGFR kinase domain (residues 696-1022) was cloned into pTriEx; 6xHis (N, cleaved yes); GST (N, cleaved yes); made in house; host or cells: SF9 insect cells (baculovirus)
T2 sequence (P00533 696-1022 T790M/C797S/L858R): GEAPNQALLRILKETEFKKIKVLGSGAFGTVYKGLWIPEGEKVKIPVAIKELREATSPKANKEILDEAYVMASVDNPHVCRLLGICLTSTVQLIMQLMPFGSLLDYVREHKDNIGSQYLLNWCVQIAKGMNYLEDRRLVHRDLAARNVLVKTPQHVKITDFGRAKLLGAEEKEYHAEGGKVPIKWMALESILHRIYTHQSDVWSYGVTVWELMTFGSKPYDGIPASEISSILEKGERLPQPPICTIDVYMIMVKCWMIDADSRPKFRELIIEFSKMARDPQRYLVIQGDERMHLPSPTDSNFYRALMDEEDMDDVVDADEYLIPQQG
Briefly: HTRF-based activity assay. It counts as biochemical. As for the experimental part:
as §1, §2

The next test addresses T3, WT EGFR kinase domain (Homo sapiens, UniProt P00533).
T3 construct: The EGFR kinase domain (residues 696-1022) was cloned into pTriEx; 6xHis (N, cleaved yes); GST (N, cleaved yes); made in house; host or cells: SF9 insect cells (baculovirus)
Briefly: HTRF-based activity assay. Type of test: biochemical. As to the method:
as §1, §2

The target in test [2] is T4, EGFR L858R/T790M kinase domain (Homo sapiens, UniProt P00533, L858R/T790M).
T4 construct: The EGFR kinase domain (residues 696-1022) was cloned into pTriEx; 6xHis (N, cleaved yes); GST (N, cleaved yes); made in house; host or cells: SF9 insect cells (baculovirus)
T4 sequence (P00533 696-1022 T790M/L858R): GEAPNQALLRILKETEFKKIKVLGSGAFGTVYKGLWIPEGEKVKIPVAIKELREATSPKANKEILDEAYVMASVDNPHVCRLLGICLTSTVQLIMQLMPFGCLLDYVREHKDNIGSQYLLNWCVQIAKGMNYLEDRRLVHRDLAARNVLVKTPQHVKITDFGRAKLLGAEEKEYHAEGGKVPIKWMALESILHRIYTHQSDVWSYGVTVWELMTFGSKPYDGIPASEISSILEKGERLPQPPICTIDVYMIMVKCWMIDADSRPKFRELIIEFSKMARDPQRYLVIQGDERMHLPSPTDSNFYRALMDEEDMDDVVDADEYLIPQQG
Briefly: HTRF-based activity assay. Type of test: biochemical. As to the method: as §1, §2

For test [3], the system named is EGFR (L858R/T790M) in H1975 lung cancer cells. Briefly: Western blotting of EGFR, ERK1/2 and AKT phosphorylation. As to conditions: 6 hours treatment. It counts as cell-based, human. As to the method:
FIG. 2. […] All experiments performed after 6 hours treatments of inhibitors or DMSO controls and Western blots are representative of at least three independent experiments.
Western blotting. Cells were collected and lysed with lysis buffer (5M NaCl, 1M TRIS pH 8.0, 10% SDS, 10% Triton X-100 and a tablet of protease inhibitors) and processed for Western blotting analysis. Primary antibodies used; phospho-EGFR (Tyr1068; #2234, 1:1,000), EGFR (#4267; 1:1,000), phospho-AKT (Ser473; #4060, 1:1,000), AKT (#9272, 1:1,000), phospho-ERK1/2 (Thr202/Tyr204; #4370, 1:1,000), and ERK1/2 (#4695, 1:1,000) antibodies; were purchased from Cell Signaling Technology. Secondary Goat anti-rabbit IgG starbright blue 700 and Anti-tubulin hFAB Rhodamine Tubulin were purchased from Bio-rad.

Test [4] concerns L858R EGFR mutant Ba/F3 cells. To be noted: cited from earlier work.
In test [5] the test system is wildtype EGFR Ba/F3 cells. As to conditions: from literature (footnotes a, c), read-out: Anti-proliferative EC50 ± SE, wt; cited from earlier work.
Test [6] concerns wildtype HER2 Ba/F3 cells. As to conditions: from Heppner et al. 2022, read-out: Anti-proliferative EC50 ± SE, HER2; cited from earlier work.
In test [7] the test system is L858R/T790M EGFR mutant Ba/F3 cells. As to conditions: from literature (footnotes a, c), read-out: Anti-proliferative EC50 ± SE, LR/TM; cited from earlier work.
[8] abbreviates: 100 μM ATP, enzyme 0.1 nM, read-out: Biochemical EGFR IC50, LR.
The mark [9] stands for this setting: 100 μM ATP, enzyme 0.02 nM, read-out: Biochemical EGFR IC50, LRTMCS.
Setting [10] is: 100 μM ATP, enzyme 0.02 nM, read-out: Biochemical EGFR IC50, LRTM.
The mark [11] stands for this setting: from literature (footnotes a, c), read-out: Anti-proliferative EC50 ± SE, LR.

Entries after “also recorded” stand apart in the source; their conditions may differ. Read-outs that look alike come from different tables or passages of the source. Some results are limits rather than exact numbers.

T1 sequence (P00533 696-1022 L858R): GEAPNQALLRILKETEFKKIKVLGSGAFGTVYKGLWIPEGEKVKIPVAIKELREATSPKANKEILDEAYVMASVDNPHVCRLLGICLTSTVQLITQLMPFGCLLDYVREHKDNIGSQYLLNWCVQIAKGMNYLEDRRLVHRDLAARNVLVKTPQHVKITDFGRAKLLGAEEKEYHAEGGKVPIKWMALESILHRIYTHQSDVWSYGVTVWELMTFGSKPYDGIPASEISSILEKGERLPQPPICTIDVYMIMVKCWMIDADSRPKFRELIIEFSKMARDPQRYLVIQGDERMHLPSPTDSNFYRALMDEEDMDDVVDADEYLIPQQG
T3 sequence (P00533 696-1022): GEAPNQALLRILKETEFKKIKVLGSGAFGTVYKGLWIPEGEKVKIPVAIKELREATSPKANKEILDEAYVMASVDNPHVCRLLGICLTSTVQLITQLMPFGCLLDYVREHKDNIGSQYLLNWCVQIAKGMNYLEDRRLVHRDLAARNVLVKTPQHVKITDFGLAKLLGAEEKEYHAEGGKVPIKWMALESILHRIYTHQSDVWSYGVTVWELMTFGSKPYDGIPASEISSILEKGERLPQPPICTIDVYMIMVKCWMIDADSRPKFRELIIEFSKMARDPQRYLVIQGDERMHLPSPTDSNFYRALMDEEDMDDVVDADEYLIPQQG

As a reminder, the IC50 is the point on the concentration scale where inhibition reaches its midpoint. As for `CSc1nc(-c2cccc(CN3C(=O)c4ccccc4Nc4ccc(F)cc43)c2)c(-c2ccnc(NC(C)=O)c2)[nH]1` [Compound 1, N-(4-(4-(3-((8-Fluoro-11-oxo-5,11-dihydro-10H-dibenzo[b,e][1,4]diazepin-10-yl)methyl)phenyl)-2-(methylthio)-1H-imidazol-5-yl)pyridin-2-yl) acetamide], the concentration for half-maximal inhibition (IC50) was 1300 ± 100 nM at EGFR L858R kinase domain (setting [8]); > 1000 nM on EGFR L858R kinase domain (read-out: IC50 values, LR); > 1000 nM in [1] (read-out: IC50 values, LRTMCS); > 1000 nM at WT EGFR kinase domain (read-out: IC50 values, WT EGFR); > 1000 nM in test [2] (read-out: IC50 values, LRTM).
As to `CSc1nc(-c2cccc(NC(=O)c3cccc4c3NC(=O)c3ccccc3N4)c2)c(-c2ccnc(NC(C)=O)c2)[nH]1` [Compound 2, N-(3-(5-(2-Acetamidopyridin-4-yl)-2-(methylthio)-1H-imidazol-4-yl)phenyl)-11-oxo-10,11-dihydro-5H-dibenzo[b,e][1,4]diazepine-9-carboxamide], the “EGFR, ERK1/2 and AKT phosphorylation (Western blot)” value in [3] was “less effective; also recorded: suppresses EGFR phosphorylation”. Also, the IC50 on EGFR L858R kinase domain (setting [8]) amounted to 1.5 ± 0.1 nM; in test [1] (setting [9]), 0.064 ± 0.004 nM; in test [2] (setting [10]), 0.059 ± 0.005 nM.
For the compound `CCc1nc(-c2cccc(NC(=O)c3cccc4c3NC(=O)c3ccccc3N4)c2)c(-c2ccnc(NC(C)=O)c2)[nH]1` [Compound 3, N-(3-(5-(2-Acetamidopyridin-4-yl)-2-ethyl-1H-imidazol-4-yl)phenyl)-11-oxo-10,11-dihydro-5H-dibenzo[b,e][1,4]diazepine-9-carboxamide], the concentration for half-maximal inhibition (IC50) at EGFR L858R kinase domain (setting [8]) was 1.2 ± 0.09 nM; in [1] (setting [9]), 0.063 ± 0.005 nM; in test [2] (setting [10]) it was 0.051 ± 0.005 nM.
With `CCc1nc(-c2cccc(NC(=O)c3cccc4c3NC(=O)c3ccccc3N4)c2)c(-c2ccnc(Nc3ccccc3)c2)[nH]1` [Compound 5, N-(3-(2-ethyl-5-(2-(phenylamino)pyridin-4-yl)-1H-imidazol-4-yl)phenyl)-11-oxo-10,11-dihydro-5H-dibenzo[b,e][1,4]diazepine-9-carboxamide], the IC50 was 1.1 ± 0.2 nM on EGFR L858R kinase domain (setting [8]); 1 ± 0.1 nM in test [1] (setting [9]); < 10 nM on WT EGFR kinase domain (100 μM ATP, enzyme 10 nM, read-out: Biochemical EGFR IC50, wt); 0.87 ± 0.09 nM in [2] (setting [10]).
Consider `O=C1c2ccccc2Nc2ccc(F)cc2N1Cc1ccccc1` [DDC4002], for which the EC50 in test [4] (experiments that include cetuximab, from De Clercq and Heppner et al. 2019, read-out: Anti-proliferative EC50 ± SE, LR) was > 10000 nM; in [4] (setting [11]), > 10000 nM.
Turning to `C=CC(=O)Nc1cc(Nc2nccc(-c3cn(C)c4ccccc34)n2)c(OC)cc1N(C)CCN(C)C` [Osimertinib], the EC50 in test [5] is 110 ± 40 nM; in test [4] (setting [11]) it was 3.3 ± 0.6 nM; in test [6] it was 34 ± 8 nM; in test [7], 8 nM.
